Our source for the Ki and EC50 values is US8637526B2, “Pyrazolopyrimidine JAK inhibitor compounds and methods” (Genentech, Inc., priority 2008, dated 2014).

One assay deals with human JAK1 kinase domain (Homo sapiens (Human), UniProt P23458). The assay can be described thus: JAK1 Inhibition Assay Protocol (Caliper LabChip peptide phosphorylation). The assay is classed as biochemical. The note with it: enzymatic activity, 25 uM ATP. From the text: The catalytically active kinase domain of human JAK1, JAK2, JAK3 or TYK2 was purified from extracts of SF9 insect cells infected with a recombinant baculovirus expression vector encoding the human JAK1, JAK2, JAK3 or TYK2 kinase domains (JAK1 amino acid residues N852-D1154 according to the numbering of GenBank sequence accession number P23458, JAK2 amino acid residues D812-G1132 according to the numbering of GenBank sequence accession number NP_004963.1; JAK3 amino acid residues S783-S1124 according to the numbering of GenBank sequence accession number P52333, and TYK2 amino acid residues N873-C1187 according to the numbering of GenBank sequence accession number P29597). The activity of the JAK1, JAK2, JAK3 or TYK2 kinase domains can be measured by a number of direct and indirect methods, including quantification of phosphorylation of peptide substrates derived from the human JAK3 protein (Saltzman et al., Biochem. Biophys. Res. Commun. 246:627-633 (2004)). The activity of the JAK1, JAK2, JAK3 or TYK2 kinase domains was measured in vitro by monitoring phosphorylation of JAK3 derived peptides using the Caliper LabChip technology.
Chain of human JAK1 kinase domain (P23458 852-1154): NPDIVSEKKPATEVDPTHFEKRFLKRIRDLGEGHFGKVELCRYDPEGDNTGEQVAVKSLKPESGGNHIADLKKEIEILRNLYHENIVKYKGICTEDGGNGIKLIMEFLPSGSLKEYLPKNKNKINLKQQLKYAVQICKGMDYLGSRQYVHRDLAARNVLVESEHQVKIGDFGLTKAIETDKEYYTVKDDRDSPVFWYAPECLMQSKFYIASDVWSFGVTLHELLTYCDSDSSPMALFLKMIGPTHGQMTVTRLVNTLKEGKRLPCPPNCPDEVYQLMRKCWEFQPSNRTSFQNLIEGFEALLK
(§1) The activity of the isolated JAK1 or TYK2 kinase domain was measured by monitoring phosphorylation of a peptide derived from JAK3 ([…] fluorescently labeled on the N-terminus with 5-carboxyfluorescein using the Caliper LabChip technology (Caliper Life Sciences, Hopkinton, Mass.). […] Reactions were incubated at 22° C. in 384-well polypropylene microtiter plates for 30 minutes and then stopped by addition of 25 uL of an EDTA containing solution (100 mM Hepes pH 7.2, 0.015% Brij-35, 150 mM EDTA), resulting in a final EDTA concentration of 50 mM. After termination of the kinase reaction, the proportion of phosphorylated product was determined as a fraction of total peptide substrate using the Caliper LabChip 3000 according to the manufacturer's specifications. Ki values were then determined using the Morrison tight binding model (Morrison, J. F., Biochim. Biophys. Acta. 185:269-296 (1969); William, J. W. and Morrison, J. F., Meth. Enzymol., 63:437-467 (1979)).

Another assay concerns the target human JAK3 kinase domain (Homo sapiens (Human), UniProt P52333). The assay can be described thus: biochemical. It counts as biochemical. The procedure:
The activity of the JAK1, JAK2, JAK3 or TYK2 kinase domains was measured in vitro by monitoring phosphorylation of JAK3 derived peptides using the Caliper LabChip technology.
as §1, with “JAK3” for “JAK1 or TYK2”, “specifications.” for “specifications. Ki values were then determined using the Morrison tight binding model (Morrison, J. F., Biochim. Biophys. Acta. 185:269-296 (1969); William, J. W. and Morrison, J. F., Meth. Enzymol., 63:437-467 (1979)).”

Assay [1] concerns Set-2 cells, which express the JAK2V617F mutant protein. As to the kind of experiment: STAT5 phosphorylation in Set-2 cells (JAK2-dependent signaling, MSD). The settings on record: Homo sapiens, read-out: pSTAT5 SET2 EC50. It counts as cell-based. The procedure: The activities of compounds were determined in cell-based assays that are designed to measure JAK2-dependent signaling or proliferation. Compounds were serially diluted in DMSO and incubated with Set-2 cells (German Collection of Microorganisms and Cell Cultures (DSMZ); Braunschweig, Germany), which express the JAK2V617F mutant protein, in 96-well microtiter plates for 1 hr at 37° C. in RPMI medium at a final cell density of 100,000 cells per well and a final DMSO concentration of 0.57%. Compound-mediated effects on STATS phosphorylation were then measured in the lysates of incubated cells using the Meso Scale Discovery (MSD) technology (Gaithersburg, Md.) according to the manufacturer's protocol and EC50 values were determined. Alternatively, serially diluted compounds were added to 384-well microtiter plates in RPMI medium with 10% fetal bovine serum (Invitrogen Corp.; Carlsbad, Calif.) at a final cell density of 2500 cells per well and a final DMSO concentration of 0.3% and incubated at 37° C. for 72 hours. Cell viability was then determined using the CellTiter-Glo® Luminescent Cell Viability Assay according to the manufacturer's protocol (Promega; Madison, Wis.) and EC50 values were determined.

The test system of a further assay is TF-1 cells. The assay can be described thus: EPO-stimulated STAT5 phosphorylation in TF-1 cells (JAK2-dependent signaling, MSD). It counts as cell-based. The settings on record: Homo sapiens, read-out: EPO pSTAT5 TF1 EC50. The procedure: The activities of compounds were determined in cell-based assays that are designed to measure JAK1 or JAK2-dependent signaling. Compounds were serially diluted in DMSO and incubated with TF-1 cells (American Type Culture Collection (ATCC); Manassas, Va.) in 384-well microtiter plates in OptiMEM medium without phenol red, 1% Charcoal/Dextran stripped FBS, 0.1 mM NEAA, 1 mM sodium pyruvate (Invitrogen Corp.; Carlsbad, Calif.) at a final cell density of 100,000 cells per well and a final DMSO concentration of 0.2%. Human recombinant IL-6 (R&D systems; Minneapolis, Minn.) or EPO (Invitrogen Corp.; Carlsbad, Calif.) was then added at a final concentration of 30 ng/mL or 10 Units/mL, respectively, to the microtiter plates containing the TF-1 cells and compound and the plates were incubated for 30 min at 37° C. Compound-mediated effects on STAT3 or STATS phosphorylation were then measured in the lysates of cells incubated in the presence of IL-6 or EPO, respectively, using the Meso Scale Discovery (MSD) technology (Gaithersburg, Md.) according to the manufacturer's protocol and EC50 values were determined.

The subject of another assay is NK92 cells. As to the kind of experiment: IL-12-stimulated STAT4 phosphorylation in NK92 cells (TYK2-dependent signaling, MSD). The settings on record: read-out: IL12-pSTAT4 NK92 EC50. It counts as cell-based. The method, then: The activities of compounds were determined in cell-based assays that are designed to measure TYK2-dependent signaling. Compounds were serially diluted in DMSO and incubated with NK92 cells (American Type Culture Collection (ATCC); Manassas, Va.) in 96-well microtiter plates in RPMI medium at a final cell density of 100,000 cells per well and a final DMSO concentration of 0.57%. Human recombinant IL-12 (R&D systems; Minneapolis, Minn.) was then added at a final concentration of 10 ng/mL to the microtiter plates containing the NK92 cells and compound and the plates were incubated for 1 hr at 37° C. Compound-mediated effects on STAT4 phosphorylation were then measured in the lysates of incubated cells using the Meso Scale Discovery (MSD) technology (Gaithersburg, Md.) according to the manufacturer's protocol and EC50 values were determined

Where [2] appears, read: enzymatic activity, 5 uM ATP, read-out: JAK3 Ki.
[3] abbreviates: 0.5 h, TF-1 cells, EPO 10 Units/mL, 30 min.
Where [4] appears, read: NK92 cells, IL-12 10 ng/mL, 1 hr.

The structures appear in SMILES notation. Like-named read-outs stand apart in the source and are kept apart here.

Chain of human JAK3 kinase domain (P52333 783-1124): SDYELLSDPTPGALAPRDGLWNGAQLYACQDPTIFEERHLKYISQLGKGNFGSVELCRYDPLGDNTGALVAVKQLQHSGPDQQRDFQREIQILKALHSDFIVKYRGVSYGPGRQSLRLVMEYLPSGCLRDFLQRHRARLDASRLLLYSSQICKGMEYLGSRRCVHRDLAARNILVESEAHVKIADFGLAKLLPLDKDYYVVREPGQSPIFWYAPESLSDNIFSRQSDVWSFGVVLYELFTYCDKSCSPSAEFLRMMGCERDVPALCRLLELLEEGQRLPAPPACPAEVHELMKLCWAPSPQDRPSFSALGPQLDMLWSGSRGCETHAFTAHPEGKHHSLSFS

Regarding `Cc1cc(NC(=O)c2cnn3ccc(N)nc23)n(-c2ccccc2C)n1` [Example 343, 5-Amino-pyrazolo[1,5-a]-pyrimidine-3-carboxylic acid (5-methyl-2-o-tolyl-2H-pyrazol-3-yl)-amide], the figures for the Ki at human JAK1 kinase domain and on human JAK3 kinase domain (setting [2]) were 29.9 nM and 28.6 nM, respectively. The EC50 in assay [1] (Set-2 cells, 1 hr incubation) is 301 nM; in the assay on TF-1 cells (setting [3]), 368 nM; in the assay on NK92 cells (setting [4]) it was 5300 nM.
For `Cc1nc(-c2ccccc2C)c(NC(=O)c2cnn3ccc(N)nc23)s1` [Example 231, 5-amino-pyrazolo[1,5-a]pyrimidine-3-carboxylic acid (2-methyl-4-o-tolyl-thiazol-5-yl)-amide], the Ki was found to be 15.2 nM at human JAK1 kinase domain and 12.4 nM on human JAK3 kinase domain (setting [2]). Further, the concentration giving a half-maximal response (EC50) in assay [1] (SET-2, 1 h) was 80.2 nM; with TF-1 cells (TF-1, 0.5 h), 230 nM; with NK92 cells (NK92, 1 h), 3300 nM.
With `Cc1cc(NC(=O)c2cnn3ccc(N)nc23)n(-c2cc(Cl)ccc2C)n1` [Example 226], the Ki on human JAK1 kinase domain stood at 7.4 nM; on human JAK3 kinase domain (setting [2]), 15.7 nM. For the same molecule, the 50% effective concentration (EC50) turned out to be 17 nM in assay [1] (Set-2 cells, 1 hr incubation); 103 nM in the assay on TF-1 cells (setting [3]); 336 nM in the assay on NK92 cells (setting [4]).
For `Nc1ccn2ncc(C(=O)Nc3c[nH]nc3-c3cc(Cl)ccc3Cl)c2n1` [Example 248, 5-Amino-pyrazolo[1,5-a]-pyrimidine-3-carboxylic acid [3-(2,5-dichloro-phenyl)-1H-pyrazol-4-yl]-amide] the same measures were 2.8 nM, 1.7 nM, 18 nM, 55.3 nM and 158 nM.
With `O=C(N[C@H]1CC[C@H](O)CC1)c1cnn2ccc(NC3CCc4ccccc43)nc12` (stereo partly shown) [Example 299, 5-(Indan-1-ylamino)-pyrazolo[1,5-a]pyrimidine-3-carboxylic acid (4-hydroxy-cyclohexyl)-amide], the inhibition constant Ki at human JAK1 kinase domain amounted to 28.7 nM; on human JAK3 kinase domain, 14.5 nM. Also, the EC50 in assay [1] (Set-2 cells, 1 hr incubation) is 256 nM; with TF-1 cells (setting [3]) it was 228 nM; in the assay on NK92 cells (setting [4]) it was 1770 nM.
As to `O=C(NC1CCOCC1)c1cnn2ccc(NC3Cc4ccccc4C3)nc12` [Example 297, 5-(Indan-2-ylamino)-pyrazolo[1,5-a]pyrimidine-3-carboxylic acid (tetrahydro-pyran-4-yl)-amide], the results for the Ki at human JAK1 kinase domain and on human JAK3 kinase domain (setting [2]) were 46.6 nM and 39.7 nM, respectively. The EC50 in assay [1] (Set-2 cells, 1 hr incubation) is 170 nM; in the assay on TF-1 cells (setting [3]), 207 nM; in the assay on NK92 cells (setting [4]), 1100 nM.
For `Nc1ccn2ncc(C(=O)Nc3ccnn3-c3cc(Cl)ccc3Cl)c2n1` [Example 277, 5-Amino-pyrazolo[1,5-a]-pyrimidine-3-carboxylic acid [2-(2,5-dichloro-phenyl)-2H-pyrazol-3-yl]-amide] the same measures were 17.6 nM, 25.4 nM, 43.4 nM, 148 nM and 603 nM.
In the same order, the values of `Cc1cc(NC(=O)c2cnn3ccc(Nc4cccc(C(F)(F)F)c4)nc23)on1` [Example 240, 5-(3-Trifluoromethyl-phenylamino)-pyrazolo-[1,5-a]pyrimidine-3-carboxylic acid (3-methyl-isoxazol-5-yl)-amide] are 36 nM, 95.1 nM, 365 nM, 735 nM and 579 nM.
